Consider 16 compounds from PubChem BioAssay AID248 (DTP/NCI, 2004).

Where “and” joins values, the source holds several entries; their conditions need not be identical. Identical values can stand only once. Toxic doses and inconclusive results are not listed.

The assay has as its system L1210 leukemia ip in BDF1 mice, survival T/C. Briefly: NCI In Vivo Anticancer Drug Screen. Data for tumor model L1210 Leukemia (intraperitoneal) in B6D2F1 (BDF1) mice. Particulars: endpoint: mean survival time, higher = longer survival. The gist of the method: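 Tumor was transplanted into mice, which were then dosed with test compound or vehicle alone. Survival was recorded for each group, and the treated figure was expressed relative to the control figure.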

[1] abbreviates: dose: 100.0 mg/kg/injection, schedule: Q04DX002 (ip), vehicle: Klucel (hydroxypropylcellulose) (HPC).
Where [2] appears, read: dose: 200.0 mg/kg/injection, schedule: Q04DX002 (ip), vehicle: Klucel (hydroxypropylcellulose) (HPC).
Where [3] appears, read: dose: 400.0 mg/kg/injection, schedule: Q04DX002 (ip), vehicle: Klucel (hydroxypropylcellulose) (HPC).
[4] abbreviates: dose: 100.0 mg/kg/injection, schedule: Q01DX001 (ip), vehicle: saline.
The mark [5] stands for this setting: dose: 200.0 mg/kg/injection, schedule: Q01DX001 (ip), vehicle: saline.
The mark [6] stands for this setting: dose: 400.0 mg/kg/injection, schedule: Q01DX001 (ip), vehicle: saline.
Setting [7] is: dose: 50.0 mg/kg/injection, schedule: Q01DX001 (ip), vehicle: carboxymethylcellulose (CMC).
Where [8] appears, read: dose: 100.0 mg/kg/injection, schedule: Q01DX001 (ip), vehicle: carboxymethylcellulose (CMC).
Where [9] appears, read: dose: 200.0 mg/kg/injection, schedule: Q01DX001 (ip), vehicle: carboxymethylcellulose (CMC).
[10] abbreviates: dose: 400.0 mg/kg/injection, schedule: Q01DX001 (ip), vehicle: carboxymethylcellulose (CMC).

On to `COC1OC2COC(c3ccccc3)OC2C(NC(C)=O)C1O` (configuration not stated), for which the T/C was 101 % of control under setting [1], 111 % of control under setting [2] and 105 % of control under setting [3].
For the compound `OC1CCCCCC2CC12` (configuration not stated), the T/C runs as follows: (dose: 25.0 mg/kg/injection, schedule: Q01DX005 (ip), vehicle: saline with Tween-80) 86 % of control; (dose: 25.0 mg/kg/injection, schedule: Q01DX009 (ip), vehicle: saline with Tween-80) 98 % of control; (dose: 50.0 mg/kg/injection, schedule: Q01DX005 (ip), vehicle: saline with Tween-80) 101 % of control; (dose: 50.0 mg/kg/injection, schedule: Q01DX009 (ip), vehicle: saline with Tween-80) 91 % of control; (dose: 100.0 mg/kg/injection, schedule: Q01DX005 (ip), vehicle: saline with Tween-80) 89 % of control and 90 % of control; (dose: 100.0 mg/kg/injection, schedule: Q01DX009 (ip), vehicle: saline with Tween-80) 91 % of control.
For `CCCCCCOC(=O)C(N)Cc1ccc(N(CCCl)CCCl)cc1` (configuration not stated), the T/C by setting is: (dose: 2.8 mg/kg/injection, schedule: Q01DX009 (ip), vehicle: other) 110 % of control; (dose: 5.6 mg/kg/injection, schedule: Q01DX001 (ip), vehicle: other) 110 % of control; (dose: 5.6 mg/kg/injection, schedule: Q01DX009 (ip), vehicle: other) 106 % of control; (dose: 11.25 mg/kg/injection, schedule: Q01DX001 (ip), vehicle: other) 110 % of control; (dose: 11.25 mg/kg/injection, schedule: Q01DX009 (ip), vehicle: other) 116 % of control; (dose: 22.5 mg/kg/injection, schedule: Q01DX001 (ip), vehicle: other) 121 % of control.
For the compound `O=[N+]([O-])c1cc(/C=N/N2CCN(/N=C/c3ccc(Cl)c([N+](=O)[O-])c3)CC2)ccc1Cl`, the T/C under setting [4] was 96 % of control, the T/C under setting [5] is 93 % of control and the T/C under setting [6] is 90 % of control.
`O=c1ccnc(C(F)(F)F)[nH]1`: the T/C (dose: 44.0 mg/kg/injection, schedule: Q01DX Z (ip), vehicle: methylcellulose (MC)) was 87 % of control; the T/C (dose: 66.0 mg/kg/injection, schedule: Q01DX Z (ip), vehicle: methylcellulose (MC)) is 96 % of control; the T/C (dose: 100.0 mg/kg/injection, schedule: Q01DX Z (ip), vehicle: methylcellulose (MC)) was 101 % of control.
Turning to `COc1ccc(OC(=O)Nc2ccccc2C)cc1`, the T/C runs as follows: (dose: 50.0 mg/kg/injection, schedule: Q04DX002 (ip), vehicle: Klucel (hydroxypropylcellulose) (HPC)) 104 % of control; under setting [1], 100 % of control and 101 % of control; under setting [2], 101 % of control; under setting [3], 104 % of control and 111 % of control.
On to `NC(CSCc1ccccc1)C(=O)O` (configuration not stated), for which the T/C was 97 % of control (dose: 7.0 mg/kg/injection, schedule: Q01DX015 (ip), vehicle: saline); 97 % of control (dose: 15.0 mg/kg/injection, schedule: Q01DX015 (ip), vehicle: saline); 101 % of control (dose: 29.0 mg/kg/injection, schedule: Q01DX015 (ip), vehicle: saline); 89 % of control under setting [7]; 97 % of control (dose: 58.0 mg/kg/injection, schedule: Q01DX015 (ip), vehicle: saline); 101 % of control under setting [8]. Also, the T/C by setting is: (dose: 100.0 mg/kg/injection, schedule: Q04DX003 (ip), vehicle: Klucel (hydroxypropylcellulose) (HPC)) 100 % of control; (dose: 117.0 mg/kg/injection, schedule: Q01DX015 (ip), vehicle: saline) 97 % of control; under setting [9], 89 % of control; (dose: 200.0 mg/kg/injection, schedule: Q04DX003 (ip), vehicle: Klucel (hydroxypropylcellulose) (HPC)) 94 % of control; (dose: 233.0 mg/kg/injection, schedule: Q01DX015 (ip), vehicle: saline) 95 % of control; (dose: 400.0 mg/kg/injection, schedule: Q04DX003 (ip), vehicle: Klucel (hydroxypropylcellulose) (HPC)) 96 % of control.
For the compound `CCCCC(CC)CNCC(O)CNCC(CC)CCCC` (configuration not stated), the T/C (dose: 50.0 mg/kg/injection, schedule: Q01DX009 (ip), vehicle: Klucel (hydroxypropylcellulose) (HPC)) is 88 % of control; the T/C under setting [1] was 108 % of control; the T/C under setting [2] was 101 % of control.
As for `Cc1cn(C2OC(C(O)C(N)=O)C(O)C2O)c(=O)[nH]c1=O` (configuration not stated), the T/C reads like this: under setting [4], 97 % of control; under setting [5], 114 % of control; under setting [6], 101 % of control.
As to `CCCCCCCCCCCCCCCC(=O)OCCCCCCCCCCC`, the T/C is, setting by setting: (dose: 100.0 mg/kg/injection, schedule: Q04DX003 (ip), vehicle: saline with Tween-80) 100 % of control; (dose: 200.0 mg/kg/injection, schedule: Q04DX003 (ip), vehicle: saline with Tween-80) 92 % of control; (dose: 400.0 mg/kg/injection, schedule: Q04DX003 (ip), vehicle: saline with Tween-80) 101 % of control.
As for `O=[N+]([O-])c1ccc(O)c(/C=N/Nc2nnc(N/N=C/c3cc([N+](=O)[O-])ccc3O)c3ccccc23)c1`, the T/C under setting [7] was 95 % of control, the T/C under setting [8] is 93 % of control, the T/C under setting [9] was 95 % of control and the T/C under setting [10] was 93 % of control.
As to `COc1c2c(c(OC)c3c1c(=O)c1ccccc1n3C)OCO2`, the T/C was 102 % of control under setting [8]; 98 % of control under setting [9]; 102 % of control (dose: 300.0 mg/kg/injection, schedule: Q01DX001 (ip), vehicle: carboxymethylcellulose (CMC)); 96 % of control under setting [10]; 93 % of control (dose: 500.0 mg/kg/injection, schedule: Q01DX001 (ip), vehicle: carboxymethylcellulose (CMC)).
As for `Nc1cc2ccncc2c2sc3ccccc3c12`, the T/C is 86 % of control (dose: 100.0 mg/kg/injection, schedule: Q01DX009 (ip), vehicle: saline); 90 % of control (dose: 100.0 mg/kg/injection, schedule: Q04DX003 (ip), vehicle: saline); 91 % of control (dose: 200.0 mg/kg/injection, schedule: Q01DX009 (ip), vehicle: saline); 90 % of control (dose: 200.0 mg/kg/injection, schedule: Q04DX003 (ip), vehicle: saline); 93 % of control (dose: 400.0 mg/kg/injection, schedule: Q01DX009 (ip), vehicle: saline); 90 % of control (dose: 400.0 mg/kg/injection, schedule: Q04DX003 (ip), vehicle: saline).
For `O=C(Nc1ccc(C2=NCCN2)cc1)c1cccc(C(=O)Nc2ccc(C3=NCCN3)cc2)c1[N+](=O)[O-]`, the T/C is 100 % of control (dose: 1.88 mg/kg/injection, schedule: Q01DX Z (ip), vehicle: saline); 100 % of control (dose: 3.75 mg/kg/injection, schedule: Q01DX Z (ip), vehicle: saline); 100 % of control (dose: 7.5 mg/kg/injection, schedule: Q01DX Z (ip), vehicle: saline); 105 % of control (dose: 15.0 mg/kg/injection, schedule: Q01DX Z (ip), vehicle: saline); 198 % of control (dose: 30.0 mg/kg/injection, schedule: Q01DX Z (ip), vehicle: carboxymethylcellulose (CMC)); 103 % of control (dose: 30.0 mg/kg/injection, schedule: Q01DX Z (oral), vehicle: saline). Also, the T/C was 117 % of control (dose: 60.0 mg/kg/injection, schedule: Q01DX Z (ip), vehicle: carboxymethylcellulose (CMC)); 105 % of control (dose: 60.0 mg/kg/injection, schedule: Q01DX Z (oral), vehicle: saline); 107 % of control (dose: 120.0 mg/kg/injection, schedule: Q01DX Z (oral), vehicle: saline); 102 % of control (dose: 240.0 mg/kg/injection, schedule: Q01DX Z (oral), vehicle: saline).
For the compound `CN1C(C(=O)c2ccccc2)C1C(=O)c1ccccc1` (configuration not stated), the T/C (dose: 75.0 mg/kg/injection, schedule: Q04DX003 (ip), vehicle: carboxymethylcellulose (CMC)) is 112 % of control; the T/C (dose: 150.0 mg/kg/injection, schedule: Q04DX003 (ip), vehicle: carboxymethylcellulose (CMC)) was 102 % of control; the T/C (dose: 300.0 mg/kg/injection, schedule: Q04DX003 (ip), vehicle: carboxymethylcellulose (CMC)) is 102 % of control.
As to `Cc1cc(=O)[nH]c(N/N=C/c2c(O)ccc3ccccc23)n1`, the T/C by setting is: under setting [4], 96 % of control; under setting [5], 94 % of control; under setting [6], 89 % of control.
